Assay results from publication PMC12682947, “Identification of New KCNT1‐Epilepsy Drugs by In Silico, Cell, and Drosophila Modeling” (Annals of Neurology, 2025).
Structures can show the parent of a compound that is named as a salt.

Biological target: T1, WT and mutant human KCNT1 channels (Homo sapiens, UniProt Q5JUK3)
T1 sequence (Q5JUK3 1-1230): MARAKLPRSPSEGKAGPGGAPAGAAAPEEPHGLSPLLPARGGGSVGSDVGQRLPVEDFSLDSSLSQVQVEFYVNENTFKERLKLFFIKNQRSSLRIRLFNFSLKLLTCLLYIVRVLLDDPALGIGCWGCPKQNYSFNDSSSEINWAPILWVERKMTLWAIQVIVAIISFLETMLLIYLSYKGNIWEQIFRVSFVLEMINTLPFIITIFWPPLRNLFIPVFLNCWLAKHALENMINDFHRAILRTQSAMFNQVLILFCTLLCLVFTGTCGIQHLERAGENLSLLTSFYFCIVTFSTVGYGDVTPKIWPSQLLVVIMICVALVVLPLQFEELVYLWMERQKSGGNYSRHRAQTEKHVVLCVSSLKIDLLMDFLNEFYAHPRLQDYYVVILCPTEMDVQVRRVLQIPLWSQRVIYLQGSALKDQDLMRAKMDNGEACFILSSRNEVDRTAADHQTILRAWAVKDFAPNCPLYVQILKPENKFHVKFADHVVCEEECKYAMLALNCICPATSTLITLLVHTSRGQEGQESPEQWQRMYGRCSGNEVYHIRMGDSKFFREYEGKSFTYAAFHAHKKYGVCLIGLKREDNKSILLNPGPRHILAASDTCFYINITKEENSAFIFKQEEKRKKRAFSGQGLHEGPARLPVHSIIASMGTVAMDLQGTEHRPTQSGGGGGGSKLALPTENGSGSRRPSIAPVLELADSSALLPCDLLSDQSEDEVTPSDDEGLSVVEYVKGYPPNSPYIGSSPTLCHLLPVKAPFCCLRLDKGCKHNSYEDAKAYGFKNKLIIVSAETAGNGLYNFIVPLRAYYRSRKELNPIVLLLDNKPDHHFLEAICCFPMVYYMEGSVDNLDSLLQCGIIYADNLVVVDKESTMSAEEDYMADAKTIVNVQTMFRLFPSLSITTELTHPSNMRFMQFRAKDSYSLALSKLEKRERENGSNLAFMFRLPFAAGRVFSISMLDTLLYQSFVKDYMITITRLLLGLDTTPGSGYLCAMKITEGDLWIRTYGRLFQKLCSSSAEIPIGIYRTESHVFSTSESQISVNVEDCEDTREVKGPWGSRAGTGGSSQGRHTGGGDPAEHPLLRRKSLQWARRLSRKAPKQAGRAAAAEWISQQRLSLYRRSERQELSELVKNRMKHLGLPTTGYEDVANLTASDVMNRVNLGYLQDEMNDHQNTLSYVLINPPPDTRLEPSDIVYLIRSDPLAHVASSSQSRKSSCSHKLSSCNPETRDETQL
Experiment: Inside-out patch clamp, statements pooled over WT and mutant channels
Format: cell-based
Details: inside-out patches; for inhibition at 0.25 µM: 250 nM
Description: The CHO cells were cultured in Dulbecco's modified Eagle's Medium (ThermoFisher, UK) supplemented with 10% (v/v) fetal bovine serum, 50 U/ml penicillin and 0.05 mg/ml streptomycin, and incubated at 37°C in 5% CO2 atmosphere. For whole cell recording of WT/Y796H KCNT1, CHO cells were transiently co‐transfected with concatemeric WT/Y796H and EYFP, as described previously.[29] For electrophysiological experiments, cells were plated onto borosilicate glass cover slips and used 2 to 4 days later. Human embryonic kidney 293T cells (HEK293T) were cultured in the same manner, but with medium supplemented with 2 mM L‐glutamine, and 1% (v/v) nonessential amino acids. For excised inside‐out recording of homomeric WT or mutant YFP‐tagged KCNT1, HEK293T cells plated on glass cover slips were transfected using Attractene Transfection Reagent (Qiagen, Germany) according to the manufacturer's instructions and used 2 to 3 days later.
Inside‐out patch clamp recordings were made at room temperature (23°C) from transiently transfected HEK293T cells, as described previously.[11] The pipette solution contained, in mM, 140 NaCl, 4 KCl, 2 CaCl2, 2 MgCl2, and 10 HEPES adjusted to pH 7.4 with NaOH. After achieving the inside‐out configuration, the intracellular face of the membrane was constantly perfused with a solution containing, in mM, 35 NaCl, 110 KCl, 0.2 EGTA, and 10 HEPES adjusted to pH 7.3 with KOH. Drug stock solutions of 5 to 20 mM in DMSO were first diluted in ethanol (1:10) and then in electrophysiological solution. KCNT1 currents were recorded using 2 voltage protocols, depending on the number of active channels in the patch before drug application. Macroscopic currents (number of active channels > 15) were recorded in response to 100 ms voltage ramps between −120 and 120 mV applied every 2 seconds from a holding potential of −78 mV. The average current amplitudes between 0 and 40 mV were used for the analyses and constructing the concentration‐response curves. With a lower number of active channels in the patch (3–15), current traces were recorded in response to 15‐second voltage steps to −20, 0, and 20 mV from a holding potential of −78 mV. Currents recorded at each voltage and each drug concentration were averaged over the duration of the trace and normalized to the average amplitudes of the corresponding current traces in drug‐free solution. The normalized data for all 3 voltage steps were then averaged for each drug concentration and used to build the concentration‐response curves (see Supplementary Fig S3). To determine the IC50, data were fitted with the Hill equation, as described previously.[11] Single channel data were analyzed using Ana software developed by Dr Michael Pusch (Istituto di Biofisica, Genova, Italy; http://users.ge.ibf.cnr.it/pusch/programs-mik.htm). […]

Compound | inhibition at 0.25 µM | inhibition at 0.3 µM (300 nM, read-out: inhibition of single KCNT1 channels) | IC50 (read-out: direct IC50 on single KCNT1 channels)
O=C(OCCN1CCN(c2cccc(C(F)(F)F)c2)CC1)c1ccccc1Nc1ccnc2cc(C(F)(F)F)ccc12 [antrafenine] | 80 to 90% | ~90% | ~10 nM
Cc1c(O)cccc1C(=O)N[C@@H](CSc1ccccc1)[C@H](O)CN1C[C@H]2CCCC[C@H]2C[C@H]1C(=O)NC(C)(C)C [nelfinavir mesylate] | 80 to 90% | – | –
